Test results taken from patent US5955508A, “Method for the enhancement of lymphocyte activity against opportunistic microbial pathogens” (priority 1996, dated 1999).

How the values were obtained:
[1] = test system: K562 human tumor cells; experiment: Incidence and metastasis of human K562 tumors in SCID mice reconstituted with human PBMC; format: in vivo
Protocol: The purpose of the present experiments was to determine whether d-FEN can enhance the ability of the human immune system to kill a human tumor cell line, vis. K562 human chronic myelogenous leukemia cells. Toward this end d-FEN and vehicle (VEH) treated young male severe combined immunodeficient (SCID) beige mice, reconstituted 4 days previously with human peripheral blood mononuclear cells (PBMC) obtained from two human volunteers, were injected with K562 cells and tumor size and number measured 13-18 days later.
SCID mice (n=36) were obtained from Harlan Sprague-Dawley Inc. (Indianapolis, Ind.). This inbred strain of mice are devoid of T, B, and natural killer (NK) cells. The animals were housed 3/cage in an AAALAC approved facility with a 12 h light-dark cycle (lights on at 07:00 h). The temperature and humidity of the facility were maintained between 72-75° F. and 52-55% respectively. Food (Purina mouse chow) and water were available ad libitum.
Protocol. The animals were divided into groups of 6 and subjected to the following treatment for each of the 2 human donors tested:
The mice treated with d-FEN (10 mg/kg/day, p.o.) received the drug daily in their drinking water beginning 10 days prior to inoculation with human PBMC. On the day of PBMC injection (3×10^7 human PBMC/mouse, i.p.) the dose of d-FEN was reduced to […]. The average daily water intakes and body weights of the mice were 6 ml and 20 g, respectively. Therefore, a dose of 6 mg/kg equaled 2 mg of d-FEN per 100 ml of water. Four days after reconstitution with human PBMC, 1×10^7 K562 human tumor cells/mouse were injected i.p. The animals were sacrificed between 11:00 and 13:00 h 13-18 days after K562 cell injection (17-22 and 27-32 days, respectively, after transfection with human PBMC and the start of d-FEN treatment). The animals were thoroughly necropsied and tumor sites counted, excised, weighed and fixed for histological analysis.
For reconstitution of SCID mice with human PBMC, 500 ml of venous blood was drawn into sterile plastic pouches containing preservative free heparin. Blood was drawn by Apheresis Lab nurses at LUMC (Loyola University Medical Center) and was diluted with an equal volume of HBSS. The diluted blood (20 ml) was layered over 10 ml of Histopaque 1077 (Sigma Chemical Company, St. Louis, Mo.) and centrifuged at 1000×g for 30 min. After centrifugation, the mononuclear cell layer was recovered from the interface and washed twice in HBSS. After microscopic enumeration, the PBMC were resuspended in HBSS at a concentration of 1×10^8 cells/ml, and 0.3 ml (3×10^7 cells) of the cell suspension was injected (i.p.) into each SCID mouse.
The K562 cell line originated from a chronic myelogenous leukemia patient and was obtained from Dr. T. Ellis (Director, Cellular Immunology Laboratory, LUMC). The K562 cells used for assessment of cytotoxic activity were maintained in long term cultures using Corning 25 cm^2 tissue culture flasks (Corning Glass Works, Corning, N.Y.) containing RPMI 1640 (Gibco Laboratories, Grand Island, N.Y.) supplemented with low LPS 10% fetal bovine serum (FBS; Gibco), 100 units/ml penicillin, 100 μg/ml streptomycin (Whittaker M. A. Bioproducts, Walkersville, Md.), 0.1 mM non-essential amino acids, and 2 mM L-glutamine (Gibco). This medium was used throughout, except where noted, and is referred to as "culture medium". The K562 cells were grown in suspension and were passaged three times per week by transfer of 10^6 K562 cells into a flask containing 10 ml of fresh culture medium. The K562 cells injected into the SCID mice were supplemented with fresh medium at a 1:3 dilution the day before administration. They were washed once in medium, pelleted by centrifugation at 500 ×g for 10 min., then resuspended at a concentration of 5×10^7. Subsequently, 0.2 ml (1×10^7 cells) of the cell suspension was injected (i.p.) into each SCID mouse. The K562 cells were administered to the animals four days after the injection of PBMC.

[2] = test system: IL-2 in CD4+ (CD8-) T cells; experiment: IL-2 production by CD4+ (CD8-) T cells, flow cytometry; format: cell-based, human; conditions: for % Positive Cells (IL-2 immunopositive), d-FEN / IL-2 Titer, d-FEN: CD4+ (CD8-) T cells, Mean ± SEM
Excerpt: The T lymphocytes analyzed were obtained from 20 HIV+ patients (9 females and 11 males, 25-48 years of age). The patients were diagnosed as being HIV+ within the past 0.5-9 years, and 15 are being treated with antiviral drugs. The subjects' study identification number (indicates the order in which bloods were drawn), CD4+ and CD8+ counts (determined March, 1996, as part of the present study), age, sex, date of diagnosis, and pharmacotherapy are provided in Table 1.
The experimental protocol for this project is illustrated in Table A. Note that the cultures were exposed to two doses (5 and 50 ng/ml) of d-FEN in the mitogenesis assays, whereas only one dose (50 ng/ml) was used in the antifungal and cytokine release assays.
Cytokine Profiles. Peripheral mononuclear cells were isolated by the Ficoll-Hypaque method and washed twice with RPMI-1640 medium. Cell suspensions were made at 1×10^6 /ml and the cells activated with interleukin-2 (IL-2) for 18 h or 4 days at 37° C. under 5% CO^2 +95% air. Monensin (1 nM) then was added to the culture to block secretion of cytokines, and the cultures allowed to continue for another 3 h. The cells were washed twice with PBS+1% fetal calf serum (FCS) with 0.1% saponin+0.1% sodium azide, then washed once with PBS-1% FCS and stained with anti-cytokine MAb-FL conjugate for 30 min. Following two washes, the cells were analyzed by flow cytometry for production of IL-2, IFN-γ and TNF-α. The MAbs-FL conjugates were obtained from Pharmingen (San Diego, Calif.). Potential effects of on cytokine production were evaluated (a) as increases in the percentage of a T cell subset which produce the respective cytokine; and, (b) as increases in the amount of cytokine produced by each subset. The latter were analyzed as a shift of the cytokine histograms.
The data were analyzed by a one- or two-way analysis of variance (ANOVA) with repeated measures where appropriate ([…] version 1; Jandel, San Rafael, Calif.). Significant main effects were subjected to post hoc analysis using the Student-Newman Keuls All Pairwise Multiple Comparisons test or the Mann-Whitney U test.

[3] = K562 + PBMC + d-FEN (10 then 6 mg/kg/day p.o.)
[4] = K562 + PBMC + d-FEN (10 then 6 mg/kg/day p.o.), p = 0.05

## CCN[C@@H](C)Cc1cccc(C(F)(F)F)c1 [d-FEN]
[1]; [3]
  Number of Mice Showing Multiple Tumor Sites: 1/12
  Percent of Mice Showing Multiple Tumor Sites / tumor metastasis: 8%
[1]; [4]
  Number of Mice Having Tumors: 5/12
  Percent of Mice Having Tumors: 42%
[1]; K562 + PBMC + d-FEN (10 then 6 mg/kg/day p.o., drinking water)
  Body Weight: 17.5 ± 2.1 g
[1]; d-FEN treated SCID mice, p=0.05
  incidence of histopathologically confirmed lymphomas in words: significantly (p=0.05) reduced incidence
[1]; d-FEN treated vs control SCID mice
  body weights and water intakes in words: did not differ from those of the control animals
[1]; d-FEN treated vs other two groups, p=0.6
  tumor metastasis in words: did not reach significance
[1]; doses used during the studies
  anorexigenic action and weight loss: No effect of this type was observed
[1]; one of the d-FEN treated mice, with metastasis
  largest tumor: 0.833 g
[2]; 50 ng/ml, AIDS
  % Positive Cells (IL-2 immunopositive), d-FEN: 9 ± 4%
  IL-2 Titer, d-FEN: 213 ± 33 geometric mean channel fluorescence
[2]; 50 ng/ml, non-AIDS HIV+
  % Positive Cells (IL-2 immunopositive), d-FEN: 32 ± 3%
  IL-2 Titer, d-FEN: 308 ± 27 geometric mean channel fluorescence
[2]; 50 ng/ml, CD4+ T cells, non-AIDS
  effect on IL-2 levels in words: not in the non-AIDS patients' CD4+ T cells
[2]; Homo sapiens, T-cell, read-out: percent increase of IL-2 titer over VEH
  activation at 0.05 µg/mL: 55%
